“Also recorded” adds a separate entry of the source.
What was measured:
[1] = system: NRF2-ARE signaling pathway; test: cells; assay type: cell-based; conditions: concentration required to double luciferase activity, AREc32 cells, 24 h
mouse hippocampal slices = conditions: 1 μM, OA 1 μM, 6 h
Method: Once the treatment was ended, the cell viability was measured by the MTT method, cell death with the fluorescent probe PI (1 μg/mL), and ROS production with the fluorescent probe H2DCFDA (10 μL/mL).
(§1) Fluorescence from whole slices was measured as the mean intensity with an inverted Nikon eclipse T2000-U microscope (Nikon Instruments). […] The results were normalized to the basal condition, which was considered as 100%. Image analysis was performed using Fiji software.

iNOS = test: Western blotting of iNOS in hippocampal slices exposed to OA; assay type: cell-based, mouse; conditions: hippocampal slices treated with OA
Text: (§2) As iNOS can be produced through the NF-κB (nuclear factor kappa-light-chain-enhancer of activated B cells) pathway, we analyzed the levels of p65, one of the components that form the NF-κB transcription factor family.[82] […] We also measured HO-1, an inducible enzyme transcribed by NRF2, known for its anti-inflammatory, antioxidant, and neuroprotective effects. […] NRF2 and NF-κB signaling pathways cooperate to maintain the physiological homeostasis of cellular redox status and to regulate the cellular response to stress and inflammation.[19],[83] […] This last mechanism could be related to our resveratrol-based MTDL 4e.
(§3) After acute treatment, the hippocampal slices were lysed in a cold AKT lysis buffer (137 mM NaCl, 20 mM NaF, 10% glycerol, 20 mM Tris–HCl, 1% Nonidet P-40, 1 μg/mL leupeptin, 1 mM phenylmethylsulfonylfluoride, 1 mM sodium pyrophosphate, and 1 mM Na3VO4, pH 7.5). The total protein in each sample was quantified using the Pierce BCA protein kit (Thermo Fisher). 20 μg of protein was resolved by sodium dodecyl sulfate polyacrylamide gel electrophoresis (SDS-PAGE) and transferred to Immobilon-P PVDF membranes (Millipore Corp.). […] The membranes were washed, incubated with ECL WB Kit (GE Healthcare, Amersham), and exposed using a ChemiDoc MP system (Bio-Rad Laboratories) for the visualization of the specific bands, which were then analyzed with Fiji software.

p65 = test: Western blotting of p65 in hippocampal slices exposed to OA; assay type: cell-based, mouse; conditions: hippocampal slices treated with OA
Text: as §2, §3

HO-1 = test: Western blotting of HO-1 in hippocampal slices exposed to OA; assay type: cell-based, mouse; conditions: hippocampal slices treated with OA
Text: as §2, §3

[2] = system: mice hippocampal organotypic cultures; test: Organotypic hippocampal culture, chronic OA treatment; assay type: cell-based, mouse; conditions: 1 μM, OA 10 nM, 72 h
Method: 6–10 days old mice (C57BL/6j) were sacrificed, and hippocampi were carefully removed in Hank’s balanced salt solution (HBBS). 300 μm slices were cut and placed in 0.4 μm culture inserts (Merck-Millipore, Germany) and stabilized for 24 h at 37 °C in neurobasal media (Gibco, Invitrogen) supplemented with 10% FBS (Gibco, Invitrogen). […] Finally, cell death and ROS production were determined with the fluorescent probes PI (1 μg/mL) and H2DCFDA (10 μg/mL), respectively.
as §1

`C#CCn1nc(/C=C/c2ccc(OC)cc2)oc1=O` [4e, 5-[(E)-2-(4-Methoxyphenyl)ethenyl]-3-(prop-2-yn-1-yl)-1,3,4-oxadiazol-2(3H)-one] was tested, and the “NRF2 (CD, μM)” value [1] was 9.83 ± 0.6 µM, the “ROS production (H2DCFDA)” value (mouse hippocampal slices) was “reduced ROS production to basal levels” and the “cell viability (MTT)” value (mouse hippocampal slices) was “significantly increased the cell viability to almost basal levels”. The iNOS level (iNOS) was “reduced to basal levels”, the p65 level (p65) was “slightly reduced p65 below to the basal value” and the HO-1 level (HO-1) was “further increased”. The “ROS production (H2DCFDA)” value [2] was “significantly decrease ROS production to basal levels; also recorded: significantly reduced ROS production” and the “cell death (PI mean intensity)” value [2] was “reduced hippocampal death with a statistical trend (p = 0.07); also recorded: reduce cell death; although the differences were not statistically significant”.
